Laboratory results as given in US20120058499A1, “Bioluminescent Detection of Protease Activity” (priority 2010, published 2012).

Key:
USP7 = USP7 (Homo sapiens, UniProt Q93009); assay: Isopeptidase cleavage of substrates (DUB-Glo luminescence / fluorescence), S/B; type: biochemical; details: USP7 0.5 nM
Procedure: (§1) The Ub-amino-luciferin substrate was compared to the Z-Arg-Leu-Arg-Gly-Gly (SEQ ID NO: 1)-amino-luciferin substrate (Promega DUB-Glo™ substrate) to determine the limit of detection of the activities of four different isopeptidases (UCHL3, USP2core, USP7, and USP8). For all enzymes, these two substrates were tested in parallel using the DUB-Glo™ assay system (Promega) according to the manufacturer's instructions. All enzymes were diluted into 50 mM HEPES, pH 7.5, 10 mM DTT, 0.1% Prionex (Sigma-Aldrich). For testing Z-Arg-Leu-Arg-Gly-Gly (SEQ ID NO: 1)-amino-luciferin, final isopeptidase concentrations were as follows: UCHL3 equal to approximately 0.35 to 50 nM; USP2core equal to approximately 10 to 500 nM, USP7 equal to approximately 0.1 to 50 nM, and USP8 equal to approximately 20 to 500 nM. For testing Ub-amino-luciferin, final isopeptidase concentrations were as follows: UCHL3 equal to approximately 0.05 to 50 pM; USP2core, USP7, and USP8 equal to approximately 0.5 to 500 pM. Reactions were assembled through addition of 50 μl of diluted enzyme and 50 μl of DUB-Glo™ reaction mixture supplemented with either Z-Arg-Leu-Arg-Gly-Gly (SEQ ID NO: 1)-amino-luciferin (final concentration of 20 μM) or Ub-amino-luciferin (final concentration of 100 nM). The signal in relative luminescence units (RLUs) was measured at 30 minutes from reaction assembly on an Envision multi-label plate reader (Perkin Elmer). The signal to background ratio (S/B) was calculated as (maximum signal−signal in absence of enzyme)/(signal in absence of enzyme).
(§2) The Ub-amino-luciferin (Ub-LUC) substrate was compared to the Ub-AMC substrate (FIG. 3) and the Ub-Rhodamine110 (Ub-Rho) substrate (FIG. 4), to determine the limit of detection for the activities of four different isopeptidases (UCHL3, USP2core, USP7, and USP8). All enzymes were diluted into 50 mM Tris, pH 8.0, 5 mM DTT, 0.05% (w/v) CHAPS. Final isopeptidase concentrations were as follows: UCHL3 equal to approximately 2 pM to 40 pM; USP2core, USP7, and USP8 were equal to approximately 10 to 1000 nM. Either Ub-AMC or Ub-Rhodamine110 (final concentration equal to 250 nM) were diluted into 50 mM Tris, pH 8.0, 5 mM DTT, 0.05% (w/v) CHAPS. Reactions were assembled through the addition of 50 μl diluted isopeptidase to 50 μl of either Ub-AMC or Ub-Rhodamine110, and the signal in relative fluorescence units (RFUs) was measured at 30 minutes on an Envision multi-label plate reader (Perkin Elmer). For Ub-AMC, fluorescence was monitored with filters corresponding to excitation at 340 nm and emission at 460 nm. For Ub-Rhodamine110, fluorescence was monitored with filters corresponding to excitation at 485 nm and emission at 531 nm. The signal to background (S/B) was calculated as (maximum signal−signal in absence of enzyme)/(signal in absence of enzyme).

USP8 = target: T1, USP8 (Homo sapiens, UniProt P40818); assay: as above; type: biochemical; details: USP8 0.5 nM
T1 sequence (P40818 1-1118): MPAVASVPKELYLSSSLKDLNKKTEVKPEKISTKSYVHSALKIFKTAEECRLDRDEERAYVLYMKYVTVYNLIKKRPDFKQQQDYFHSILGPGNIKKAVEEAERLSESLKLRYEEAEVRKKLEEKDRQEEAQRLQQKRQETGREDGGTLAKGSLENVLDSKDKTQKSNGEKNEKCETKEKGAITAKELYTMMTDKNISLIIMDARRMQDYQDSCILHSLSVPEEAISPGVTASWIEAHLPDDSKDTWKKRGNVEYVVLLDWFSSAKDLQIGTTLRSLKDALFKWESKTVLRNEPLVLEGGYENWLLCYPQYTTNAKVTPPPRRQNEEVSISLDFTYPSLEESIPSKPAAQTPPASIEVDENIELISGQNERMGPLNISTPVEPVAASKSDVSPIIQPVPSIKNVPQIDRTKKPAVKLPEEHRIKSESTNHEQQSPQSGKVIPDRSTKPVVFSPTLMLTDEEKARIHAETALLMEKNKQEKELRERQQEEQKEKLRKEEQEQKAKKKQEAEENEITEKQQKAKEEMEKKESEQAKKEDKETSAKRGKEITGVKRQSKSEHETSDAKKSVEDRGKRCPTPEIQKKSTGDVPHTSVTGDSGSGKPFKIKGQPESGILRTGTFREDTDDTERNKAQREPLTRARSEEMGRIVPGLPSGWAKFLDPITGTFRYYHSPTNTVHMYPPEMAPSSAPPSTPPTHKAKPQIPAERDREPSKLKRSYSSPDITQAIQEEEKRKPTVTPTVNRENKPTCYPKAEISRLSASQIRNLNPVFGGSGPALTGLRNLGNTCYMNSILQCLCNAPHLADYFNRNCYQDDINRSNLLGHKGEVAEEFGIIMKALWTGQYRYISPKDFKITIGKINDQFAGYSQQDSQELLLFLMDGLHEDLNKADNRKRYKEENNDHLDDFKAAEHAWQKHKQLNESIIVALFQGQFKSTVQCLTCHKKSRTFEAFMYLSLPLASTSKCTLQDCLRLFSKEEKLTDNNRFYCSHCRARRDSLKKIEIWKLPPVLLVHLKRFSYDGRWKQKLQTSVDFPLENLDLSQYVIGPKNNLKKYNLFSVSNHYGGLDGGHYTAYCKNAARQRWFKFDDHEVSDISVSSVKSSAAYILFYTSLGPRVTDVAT
Procedure: as §1, §2

Chain of USP7 (Q93009 whole entry, species assumed): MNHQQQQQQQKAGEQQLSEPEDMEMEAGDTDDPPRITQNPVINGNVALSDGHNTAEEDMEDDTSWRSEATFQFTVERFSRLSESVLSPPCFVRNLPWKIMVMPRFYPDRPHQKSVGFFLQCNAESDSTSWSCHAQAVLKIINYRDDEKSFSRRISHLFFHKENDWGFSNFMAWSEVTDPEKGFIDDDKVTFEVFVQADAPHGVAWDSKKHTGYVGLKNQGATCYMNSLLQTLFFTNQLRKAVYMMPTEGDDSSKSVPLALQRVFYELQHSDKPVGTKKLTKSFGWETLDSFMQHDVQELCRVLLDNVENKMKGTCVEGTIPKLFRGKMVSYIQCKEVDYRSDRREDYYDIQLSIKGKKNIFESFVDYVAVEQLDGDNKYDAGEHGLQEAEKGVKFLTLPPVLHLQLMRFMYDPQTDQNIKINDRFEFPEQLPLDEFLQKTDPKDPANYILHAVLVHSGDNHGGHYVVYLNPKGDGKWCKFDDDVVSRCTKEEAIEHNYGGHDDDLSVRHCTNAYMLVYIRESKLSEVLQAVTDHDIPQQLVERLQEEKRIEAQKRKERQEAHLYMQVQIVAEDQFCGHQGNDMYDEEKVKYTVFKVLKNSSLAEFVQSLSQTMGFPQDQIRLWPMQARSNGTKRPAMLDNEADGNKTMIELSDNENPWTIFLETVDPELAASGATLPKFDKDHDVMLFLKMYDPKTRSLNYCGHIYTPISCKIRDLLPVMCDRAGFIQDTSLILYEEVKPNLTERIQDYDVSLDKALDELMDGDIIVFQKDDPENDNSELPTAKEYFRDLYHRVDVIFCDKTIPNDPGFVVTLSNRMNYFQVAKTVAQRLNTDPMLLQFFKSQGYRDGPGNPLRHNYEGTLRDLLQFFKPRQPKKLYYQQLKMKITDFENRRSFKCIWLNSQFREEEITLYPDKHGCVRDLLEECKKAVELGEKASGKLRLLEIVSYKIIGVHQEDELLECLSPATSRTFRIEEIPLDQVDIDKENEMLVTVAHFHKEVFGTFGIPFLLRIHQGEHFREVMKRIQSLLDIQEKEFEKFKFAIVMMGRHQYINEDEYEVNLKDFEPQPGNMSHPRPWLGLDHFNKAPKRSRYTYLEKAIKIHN

- S/B increase relative to both Ub-AMC and Ub-Rhodamine110 (USP7): ~100 fold
- S/B increase relative to both Ub-AMC and Ub-Rhodamine110 (USP8): ~100 fold
Substance: Ub(1-76)-aminoluciferin [Ub-LUC]
